Entries after “also recorded” stand apart in the source; their conditions may differ.
Legend:
[1] = tested on: hHO-1 transfected primary rat astroglial cultures; test: Protein carbonyl assay (ELISA) in hHO-1 transfected rat astroglia, whole-cell and mitochondrial fractions; assay type: cell-based; conditions: whole cell and mitochondrial compartments; for oxidative protein damage (protein carbonyls) accruing from hHO-1 transfection: 6.5 μM; for dose dependence of attenuation of oxidative protein damage: transiently transfected rat astroglia, hydrochloride
Method: Cells were grown in Ham's F12 and high glucose DMEM (50:50 v/v) supplemented with 10 mM HEPES, 5% heat-inactivated horse serum, 5% heat-inactivated fetal bovine serum, and penicillin-streptomycin (50 U/mL and 50 μg/mL, respectively).
(§1) Upon reaching >90% confluence, 1×10^6 cells were transiently transfected with 4.0 μg of plasmid DNA-Lipofectamine 2000 complex using Lipofectamine 2000 method according to manufacturer instructions (Invitrogen). […] 12 μg of plasmid DNA and 16 μl of Lipofectamine 2000 reagent were diluted in 1.5 mL opti-MEM I reduced serum medium and incubated for 5 minutes at room temperature with gentle mixing. The two solutions were combined, incubated at room temperature for 20 minutes to promote formation of DNA-lipid complexes and administered to the cells. 2 mL opti-MEM I reduced serum medium was added to the flasks to ensure coverage of the monolayer by the transfection mixture. Following incubation for 6 hours at 37° C., the transfection mixture was replaced with 10 mL of complete media without antibiotics.
The cells were sonicated (Sonics & Materials, Danbury, Conn.) at a power level of 50 for 3×20 s in a cooled water bath. […] Whole-cell and mitochondrial preparations were assayed for protein carbonyls as described below.
Protein carbonyls were reacted with 2,4-dinitrophenylhydrazine (DNP) and the hydrazone adducts were detected with anti-DNP antisera. Quantification was achieved by comparison with oxidized BSA standards. Oxidized (carbonylated) BSA was prepared by reacting natural BSA (at 50 mg/mL in PBS) with hypochlorous acid (5 mM) for 1 h at 37° C., followed by overnight dialysis against PBS at 4° C. […] The pellet was resuspended in 2 mL of same buffer, sonicated on ice 2×15 s at 20 W and centrifuged for 20 min at 4° C. at 1,303×g. Protein concentration of supernatant was measured with the RC DC protein assay based on the Lowry protocol (Bio-Rad Laboratories, Hercules, Calif.). All samples were adjusted to 4.0 mg protein/mL. […] Five microliters aliquots of each reaction mixture were mixed with 1 mL PBS and 200 μL replicates were added per well to 96-well immunoplates and incubated overnight at 4° C. After washing with PBS, nonspecific binding sites were blocked with 0.1% Tween 20 in PBS. […] A 6-point standard curve of reduced and oxidized BSA was generated for each plate analyzed. Specific absorbance for each sample was calculated by subtracting basal absorbance of the DNP reagent from the total absorbance.

[2] = target: T1, heme oxygenase activity in hHO-1-transfected astrocytes (Homo sapiens, UniProt P09601); test: In vitro HO enzyme activity (bilirubin formation) in hHO-1 transfected cells; assay type: cell-based; conditions: 6.5 μM, 18 h; hydrochloride
T1 construct: containing the entire protein-coding region (866 bp) of the human HO-1 gene; expressed in transfected cells; host or cells: primary rat astrocytes (also rat C6 glioma and human pancreatic tumor cells), transient transfection with Lipofectamine 2000
T1 sequence (P09601 1-288): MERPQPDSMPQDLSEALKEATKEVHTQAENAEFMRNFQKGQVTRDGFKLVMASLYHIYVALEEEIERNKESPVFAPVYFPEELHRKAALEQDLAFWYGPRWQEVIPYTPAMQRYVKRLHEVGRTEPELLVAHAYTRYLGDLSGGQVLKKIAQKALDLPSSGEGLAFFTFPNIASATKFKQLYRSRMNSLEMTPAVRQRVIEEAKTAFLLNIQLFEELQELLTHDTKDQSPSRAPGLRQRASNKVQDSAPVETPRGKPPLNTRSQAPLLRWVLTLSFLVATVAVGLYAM
Method: as §1
Cytosol extracts were prepared for HO activity measurement by the method of Ryter (Ryter, Kvam, Tyrrell 2000). […] Protein concentration of supernatant was measured with Bradford method. […] HO activity was calculated as nanomoles bilirubin per miligram protein per min, assuming an extinction coefficient of 40/mM/cm in chloroform (see FIG. 8).

flag-tagged HO-1 protein = test: Western blot of flag-tagged HO-1 protein in transfected cells; assay type: cell-based, human; conditions: 6.5 μM, transiently transfected cells
Method: Cells were rinsed twice with cold PBS (pH 7.4) and scraped in iced lysis buffer consisting of 1% Nonidet P-40, 50 mM Tris.HCl (pH 7.4), 30 mM NaCl, 25 mM β-glycerophosphate, 10 mM EDTA, 10 mM EGTA, 1 mM MgCl2, and protease inhibitors (10 mM sodium fluoride, 50 μg/mL AEBBSF, 5 μg/mL leupeptin, 5 μg/mL pepstatin, 5 μg/mL aprotinin). Supernatants were obtained by centrifugation at 15,000 rpm for 15 min at 4° C. Protein contents were determined using the Bradford method. Twenty μg aliquots plus 6×SDS-PAGE loading buffer (300 mM Tris.HCl pH 6.8, 600 mM DTT, 12% SDS, 0.6% bromophenol blue, 60% glycerol) were subjected to 10% sodium dodecyl sulfate-polyacrylamide gel electrophoresis and transferred to the polyvinylidene fluoride membranes. Nonspecific binding was blocked by incubation in Tris buffer saline (pH 7.4) containing 3% nonfat milk and 0.1% Tween 20 for 1 h at room temperature. Blots were probed with mouse anti-FLAG monoclonal antibody (1:200 diluted) and anti-β-actin monoclonal antibody (1:500 diluted). The secondary antibody consisted of horseradish peroxidase-conjugated goat anti-mouse antibody (1:4000 dilution). Protein bands were visualized by enhanced chemiluminescence using ECL western blotting reagents.

[3] = tested on: human pancreatic tumor cells; test: Cell proliferation assay ([3H] thymidine incorporation), pancreatic tumor cells; assay type: cell-based; conditions: 6.5 μM, 18 h

SMILES: Cl.FC[C@@H]1CO[C@@](CCc2ccc(Cl)cc2)(Cn2ccnc2)O1 [QC-47, (2R,4S)-1-{2-[2-(4-Chlorophenyl)ethyl]-4-fluoromethyl-[1,3]dioxolan-2-ylmethyl}-1H-imidazole hydrochloride]
- oxidative protein damage (protein carbonyls) accruing from hHO-1 transfection [1]: significantly attenuated oxidative protein damage
- dose dependence of attenuation of oxidative protein damage [1]: significant dose dependant attenuations of oxidative protein damage; also recorded: in a dose dependent manner significantly decreased the amount of oxidative damage
- heme oxygenase activity in hHO-1 transfected cells [2]: suppressed to levels akin to those of non-transfected and sham-transfected controls; also recorded: significantly attenuated heme oxygenase activity; also recorded: significantly decreased the activity of heme oxygenase-1
- expression level of flag-tagged HO-1 protein (flag-tagged HO-1 protein): without affecting the expression level

SMILES: Brc1ccc(CCC2(Cn3ccnc3)OCCO2)cc1.Cl [QC-56, 1-((2-(2-(4-Bromophenyl)ethyl)-1,3-dioxolan-2-yl)methyl)-1H-imidazole hydrochloride]
- oxidative protein damage (protein carbonyls) accruing from hHO-1 transfection [1]: significantly attenuated oxidative protein damage
- dose dependence of attenuation of oxidative protein damage [1]: significant dose dependant attenuations of oxidative protein damage; also recorded: in a dose dependent manner significantly decreased the amount of oxidative damage; also recorded: significant dose-dependant attenuations of oxidative protein damage
- heme oxygenase activity in hHO-1 transfected cells [2]: suppressed to levels akin to those of non-transfected and sham-transfected controls; also recorded: significantly attenuated heme oxygenase activity; also recorded: significantly decreased the activity of heme oxygenase-1
- expression level of flag-tagged HO-1 protein (flag-tagged HO-1 protein): without affecting the expression level
- 3H-thymidine incorporation, non-transfected cells ([3]; compared to untreated cells, hydrochloride): significantly attenuated ^3H-thymidine incorporation; also recorded: marked reduction in the rate of cellular proliferation
- 3H-thymidine incorporation, hHO-1 transfected cells ([3]; hHO-1 transfected human pancreatic tumor cells): significantly attenuated the effects of hHO-1 transfection on ^3H-thymidine incorporation
